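All cell lines were grown in 96-well plates and treated with compound for 48 hours. GI50 is the concentration that inhibits growth by half. The concentration for full growth arrest is given as TGI.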
Legend:
Experiment in all cases: inhibition of tumour cell growth, NCI panel, 48 h
HL-60(TB) leukemia = system: HL-60(TB) leukemia
SW-620 colon = system: SW-620 colon
MDA-MB-435 = system: MDA-MB-435
HCC-2998 colon = system: HCC-2998 colon
HS 578T breast = system: HS 578T breast
SK-MEL-28 melanoma = system: SK-MEL-28 melanoma
SK-MEL-5 melanoma = system: SK-MEL-5 melanoma
A498 renal = system: A498 renal
LOX IMVI melanoma = system: LOX IMVI melanoma
A549 NSCLC = system: A549 NSCLC
OVCAR-8 ovarian = system: OVCAR-8 ovarian
OVCAR-5 ovarian = system: OVCAR-5 ovarian
M14 melanoma = system: M14 melanoma
HOP-62 NSCLC = system: HOP-62 NSCLC
HCT-116 colon = system: HCT-116 colon
T-47D breast = system: T-47D breast
HT29 colon = system: HT29 colon
UACC-62 melanoma = system: UACC-62 melanoma
RPMI-8226 leukemia = system: RPMI-8226 leukemia
TK-10 renal = system: TK-10 renal
SN12C renal = system: SN12C renal
IGROV1 ovarian = system: IGROV1 ovarian
OVCAR-4 ovarian = system: OVCAR-4 ovarian
EKVX NSCLC = system: EKVX NSCLC
SF-268 CNS = system: SF-268 CNS
SNB-75 CNS = system: SNB-75 CNS
U251 CNS = system: U251 CNS
SF-539 CNS = system: SF-539 CNS
PC-3 prostate = system: PC-3 prostate
NCI-H460 lung = system: NCI-H460 lung
MDA-MB-468 breast = system: MDA-MB-468 breast
MALME-3M melanoma = system: MALME-3M melanoma
KM12 colon = system: KM12 colon
NCI-H23 lung = system: NCI-H23 lung
NCI/ADR-RES ovarian = system: NCI/ADR-RES ovarian
SK-MEL-2 melanoma = system: SK-MEL-2 melanoma
OVCAR-3 ovarian = system: OVCAR-3 ovarian
COLO 205 colon = system: COLO 205 colon
ACHN renal = system: ACHN renal
SK-OV-3 ovarian = system: SK-OV-3 ovarian
SF-295 CNS = system: SF-295 CNS
CCRF-CEM leukemia = system: CCRF-CEM leukemia
MDA-MB-231 breast = system: MDA-MB-231 breast
SNB-19 CNS = system: SNB-19 CNS
BT-549 breast = system: BT-549 breast
CAKI-1 renal = system: CAKI-1 renal
UO-31 renal = system: UO-31 renal
NCI-H522 lung = system: NCI-H522 lung
HOP-92 NSCLC = system: HOP-92 NSCLC
HCT-15 colon = system: HCT-15 colon
DU-145 prostate = system: DU-145 prostate
MCF7 breast = system: MCF7 breast
SR leukemia = system: SR leukemia
K-562 leukemia = system: K-562 leukemia
MOLT-4 leukemia = system: MOLT-4 leukemia
RXF 393 renal = system: RXF 393 renal
NCI-H226 lung = system: NCI-H226 lung
786-0 renal = system: 786-0 renal
UACC-257 melanoma = system: UACC-257 melanoma

## O=C(CNc1nc(-c2ccccc2)cs1)Nc1ccc(Cl)cc1
HL-60(TB) leukemia
  GI50: 304 nM
  TGI: 2260 nM
SW-620 colon
  GI50: 683 nM
  TGI: 1910 nM
MDA-MB-435
  GI50: 559 nM
  TGI: 2100 nM
HCC-2998 colon
  GI50: 835 nM
  TGI: 2180 nM
HS 578T breast
  GI50: 1270 nM
  TGI: > 91300 nM
SK-MEL-28 melanoma
  GI50: 1080 nM
  TGI: 2430 nM
SK-MEL-5 melanoma
  GI50: 440 nM
  TGI: 851 nM
A498 renal
  GI50: 2150 nM
  TGI: 5020 nM
LOX IMVI melanoma
  GI50: 167 nM
  TGI: 616 nM
A549 NSCLC
  GI50: 1070 nM
  TGI: 2480 nM
OVCAR-8 ovarian
  GI50: 989 nM
OVCAR-5 ovarian
  GI50: 1030 nM
  TGI: 2410 nM
M14 melanoma
  GI50: 341 nM
  TGI: 1680 nM
HOP-62 NSCLC
  GI50: 1350 nM
  TGI: 2730 nM
HCT-116 colon
  GI50: 196 nM
  TGI: 796 nM
T-47D breast
  GI50: 337 nM
  TGI: 2440 nM
HT29 colon
  GI50: 348 nM
  TGI: 1320 nM
UACC-62 melanoma
  GI50: 496 nM
  TGI: 1640 nM
RPMI-8226 leukemia
  GI50: 331 nM
  TGI: 2720 nM
TK-10 renal
  GI50: 1070 nM
  TGI: 2520 nM
SN12C renal
  GI50: 465 nM
  TGI: 1230 nM
IGROV1 ovarian
  GI50: 554 nM
  TGI: 1750 nM
OVCAR-4 ovarian
  GI50: 1340 nM
  TGI: 3170 nM
EKVX NSCLC
  GI50: 530 nM
  TGI: 1200 nM
SF-268 CNS
  GI50: 1880 nM
  TGI: 10100 nM
SNB-75 CNS
  GI50: 628 nM
  TGI: 5900 nM
U251 CNS
  GI50: 339 nM
  TGI: 813 nM
SF-539 CNS
  GI50: 518 nM
  TGI: 971 nM
PC-3 prostate
  GI50: 519 nM
  TGI: 2610 nM
NCI-H460 lung
  GI50: 936 nM
  TGI: 3120 nM
MDA-MB-468 breast
  GI50: 394 nM
  TGI: 877 nM
MALME-3M melanoma
  GI50: 507 nM
  TGI: 1200 nM
KM12 colon
  GI50: 828 nM
  TGI: 2530 nM
NCI-H23 lung
  GI50: 407 nM
  TGI: 1020 nM
NCI/ADR-RES ovarian
  GI50: 213 nM
  TGI: 533 nM
SK-MEL-2 melanoma
  GI50: 646 nM
  TGI: 2070 nM
OVCAR-3 ovarian
  GI50: 552 nM
  TGI: 1310 nM
COLO 205 colon
  GI50: 1580 nM
  TGI: 3230 nM
ACHN renal
  GI50: 385 nM
  TGI: 846 nM
SK-OV-3 ovarian
  GI50: 1390 nM
  TGI: 4540 nM
SF-295 CNS
  GI50: 708 nM
  TGI: 2150 nM
CCRF-CEM leukemia
  GI50: 243 nM
  TGI: > 21500 nM
MDA-MB-231 breast
  GI50: 480 nM
  TGI: 1390 nM
SNB-19 CNS
  GI50: 777 nM
  TGI: 2130 nM
BT-549 breast
  GI50: 216 nM
  TGI: 643 nM
CAKI-1 renal
  GI50: 466 nM
  TGI: 1890 nM
UO-31 renal
  GI50: 654 nM
  TGI: 2030 nM
NCI-H522 lung
  GI50: 152 nM
  TGI: 305 nM
HOP-92 NSCLC
  GI50: 461 nM
  TGI: 2130 nM
HCT-15 colon
  GI50: 315 nM
  TGI: 800 nM
DU-145 prostate
  GI50: 1540 nM
  TGI: 2920 nM
MCF7 breast
  GI50: 323 nM
  TGI: 860 nM
SR leukemia
  GI50: 25500 nM
  TGI: > 100000 nM
K-562 leukemia
  GI50: 224 nM
  TGI: > 100000 nM
MOLT-4 leukemia
  GI50: 364 nM
RXF 393 renal
  GI50: 514 nM
  TGI: 1170 nM
NCI-H226 lung
  GI50: 651 nM
  TGI: 2940 nM
786-0 renal
  GI50: 217 nM
  TGI: 469 nM
UACC-257 melanoma
  GI50: 1060 nM
  TGI: 3290 nM

Source: PubChem BioAssay (NCI)
